Assay results reported in patent publication US10150760B2, “Compounds for use in preparing heterocyclic triazole agonists of the APJ receptor” (AMGEN INC., priority 2016, dated 2018).

Columns and labels:
[1] = tested on: isolated perfused rat hearts; test: Ex vivo isolated perfused rat heart assay (Langendorff apparatus), load independent inotropic and lusitropic effects; set-up: species or system Sprague Dawley rat; conditions: ex vivo isolated perfused rat heart, percent change over vehicle; for Isolated Heart Assay dP/dtmax (%): contractility; for Isolated Heart Assay dP/dtmin (%): relaxation
Excerpt: Evidence for Load Independent Inotropic Effects with APJ Agonists Using Ex Vivo Assay (Isolated Perfused Rat Hearts)
Naive Sprague Dawley® SD rats (Harlan laboratories (Livermore, Calif. USA)) were anaesthetized and hearts were excised followed by cannulation in the Langendorff apparatus (Harvard apparatus, Holliston, Mass. USA) via aorta. The heart was perfused retrograde with modified oxygenated Krebs-Henseleit buffer (Skrzypiec-Spring M et al., (2007) J. Pharmacol Toxicol Methods 55: 113-126). The pressure of the solution causes the aortic valve to shut and the perfusate is then forced into the ostium and the coronary vessels. This allows the heart to beat for several h. A balloon was inserted into the left ventricle (LV) to measure dP/dtmax (derivative of left ventricular pressure) as an index of cardiac contractility. The APJ agonist was perfused constantly in a dose dependent manner into the heart to examine cardiac contractility.
Example 49.0 was infused at different concentrations and load independent contractility was measured by index of LV dP/dtmax and the results are expressed as a percent change over vehicle. […] Example 49.0 was infused at different concentrations and load independent lusitropic effect (relaxation) was measured by index of LV dP/dtmin where results are expressed as percent change over vehicle. […] Example 60.0 was infused at different concentrations and load independent contractility was measured by index of LV dP/dtmax and the results are expressed as a percent change over vehicle. […] Example 60.0 was infused at different concentrations and load independent lusitropic effect (relaxation) was measured by index of LV dP/dtmin where results are expressed as percent change over vehicle.

human APJ receptor = human APJ receptor (Homo sapiens (Human), UniProt P35414); test: [35S]GTPγS binding assay on membranes from CHO cells stably expressing human APJ receptor; assay type: biochemical; conditions: read-out: Activity hAPJ SPA EC50 IP
Sequence of human APJ receptor (P35414 whole entry): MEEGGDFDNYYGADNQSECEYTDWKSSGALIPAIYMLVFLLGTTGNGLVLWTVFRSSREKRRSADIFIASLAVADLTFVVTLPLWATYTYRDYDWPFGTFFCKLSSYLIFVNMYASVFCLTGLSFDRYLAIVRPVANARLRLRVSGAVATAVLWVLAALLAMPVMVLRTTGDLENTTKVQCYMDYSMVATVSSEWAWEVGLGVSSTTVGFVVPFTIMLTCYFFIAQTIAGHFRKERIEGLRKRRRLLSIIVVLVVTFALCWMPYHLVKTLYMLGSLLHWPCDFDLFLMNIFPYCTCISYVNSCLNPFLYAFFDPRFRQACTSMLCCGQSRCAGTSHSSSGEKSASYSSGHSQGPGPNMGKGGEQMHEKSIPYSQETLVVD
Procedure, shortened: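 Agonist-driven [35S]GTPγS (0.2 nM) binding was measured over 90 min at room temperature on human APJ-expressing CHO membranes with bead capture, in buffer containing 3 μM GDP, 200 mM NaCl and 5 mM MgCl2 (pH 7.5). Excess unlabelled GTPγS (100 μM) gave nonspecific signal; EC50 from non-linear fits.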

| SMILES | Isolated Heart Assay dP/dtmax (%) [1] | Isolated Heart Assay dP/dtmin (%) [1] | EC50 (human APJ receptor) [nM] |
| --- | --- | --- | --- |
| COc1cccc(OC)c1-n1c(NS(=O)(=O)[C@@H](C)[C@H](OC)c2ncc(Cl)cn2)nnc1[C@H]1CCCOC1 (single isomer, unassigned) [Example 65.0, (1R,2S)-1-(5-chloropyrimidin-2-yl)-N-(4-(2,6-dimethoxyphenyl)-5-((R)-tetrahydro-2H-pyran-3-yl)-4H-1,2,4-triazol-3-yl)-1-methoxypropane-2-sulfonamide or (1R,2S)-1-(5-chloropyrimidin-2-yl)-N-(4-(2,6-dimethoxyphenyl)-5-((S)-tetrahydro-2H-pyran-3-yl)-4H-1,2,4-triazol-3-yl)-1-methoxypropane-2-sulfonamide] | 6.0% | No effect | 2.9 |
| COc1cccc(OC)c1-n1c(NS(=O)(=O)[C@@H](C)[C@H](C)c2ncc(C)cn2)nnc1[C@H]1OCC[C@H]1C (single isomer, unassigned) [Example 72.0, (2S,3R)-N-(4-(2,6-dimethoxyphenyl)-5-((2R,3S)-3-methyltetrahydrofuran-2-yl)-4H-1,2,4-triazol-3-yl)-3-(5-methylpyrimidin-2-yl)butane-2-sulfonamide or (2S,3R)-N-(4-(2,6-dimethoxyphenyl)-5-((2S,3R)-3-methyltetrahydrofuran-2-yl)-4H-1,2,4-triazol-3-yl)-3-(5-methylpyrimidin-2-yl)butane-2-sulfonamide] | 5.9% | 2.5% | 6.8 |
| COc1cccc(OC)c1-n1c(NS(=O)(=O)[C@@H](C)[C@H](OC)c2ncc(Cl)cn2)nnc1[C@H]1OCC[C@H]1C (single isomer, unassigned) [Example 73.0, (1R,2S)-1-(5-chloropyrimidin-2-yl)-N-(4-(2,6-dimethoxyphenyl)-5-((2R,3S)-3-methyltetrahydrofuran-2-yl)-4H-1,2,4-triazol-3-yl)-1-methoxypropane-2-sulfonamide or (1R,2S)-1-(5-chloropyrimidin-2-yl)-N-(4-(2,6-dimethoxyphenyl)-5-((2S,3R)-3-methyltetrahydrofuran-2-yl)-4H-1,2,4-triazol-3-yl)-1-methoxypropane-2-sulfonamide] | 2.0% | No effect | 1.4 |
| COc1cccc(OC)c1-n1c(NS(=O)(=O)[C@@H](C)[C@H](OC)c2ncc(Cl)cn2)nnc1[C@H]1OCC[C@H]1C (single isomer, unassigned) [Example 74.0, (1R,2S)-1-(5-chloropyrimidin-2-yl)-N-(4-(2,6-dimethoxyphenyl)-5-((2R,3S)-3-methyltetrahydrofuran-2-yl)-4H-1,2,4-triazol-3-yl)-1-methoxypropane-2-sulfonamide or (1R,2S)-1-(5-chloropyrimidin-2-yl)-N-(4-(2,6-dimethoxyphenyl)-5-((2S,3R)-3-methyltetrahydrofuran-2-yl)-4H-1,2,4-triazol-3-yl)-1-methoxypropane-2-sulfonamide] | 5.8% | 2.1% | 120 |
| COc1cccc(OC)c1-n1c(NS(=O)(=O)[C@@H](C)[C@H](OC)c2ncc(Cl)cn2)nnc1[C@H]1CC[C@@H](C)O1 (single isomer, unassigned) [Example 77.0, (1R,2S)-1-(5-chloropyrimidin-2-yl)-N-(4-(2,6-dimethoxyphenyl)-5-((2S,5S)-5-methyltetrahydrofuran-2-yl)-4H-1,2,4-triazol-3-yl)-1-methoxy-propane-2-sulfonamide or (1R,2S)-1-(5-chloropyrimidin-2-yl)-N-(4-(2,6-dimethoxyphenyl)-5-((2R,5R)-5-methyltetrahydrofuran-2-yl)-4H-1,2,4-triazol-3-yl)-1-methoxypropane-2-sulfonamide] | 5.0% | No effect | 0.14 |
| COc1cccc(OC)c1-n1c(NS(=O)(=O)[C@@H](C)[C@H](OC)c2ncc(Cl)cn2)nnc1[C@H]1CC[C@@H](C)O1 (single isomer, unassigned) [Example 78.0, (1R,2S)-1-(5-chloropyrimidin-2-yl)-N-(4-(2,6-dimethoxyphenyl)-5-((2S,5S)-5-methyltetrahydrofuran-2-yl)-4H-1,2,4-triazol-3-yl)-1-methoxy-propane-2-sulfonamide or (1R,2S)-1-(5-chloropyrimidin-2-yl)-N-(4-(2,6-dimethoxyphenyl)-5-((2R,5R)-5-methyltetrahydrofuran-2-yl)-4H-1,2,4-triazol-3-yl)-1-methoxypropane-2-sulfonamide] | 7.09% | 8.61% | 5 |
| COc1ncnc(OC)c1-n1c(NS(=O)(=O)[C@@H](C)[C@H](OC)c2ncc(Cl)cn2)nnc1[C@H]1CCCO1 (single isomer, unassigned) [Example 80.0, (1R,2S)-1-(5-chloropyrimidin-2-yl)-N-(4-(4,6-dimethoxypyrimidin-5-yl)-5-((S)-tetrahydrofuran-2-yl)-4H-1,2,4-triazol-3-yl)-1-methoxypropane-2-sulfonamide or (1R,2S)-1-(5-chloropyrimidin-2-yl)-N-(4-(4,6-dimethoxypyrimidin-5-yl)-5-((R)-tetrahydrofuran-2-yl)-4H-1,2,4-triazol-3-yl)-1-methoxypropane-2-sulfonamide] | No effect | No effect | 9.1 |
| COc1cccc(OC)c1-n1c(NS(=O)(=O)[C@@H](C)[C@@H](OC(C)C)c2ncc(C)cn2)nnc1[C@H]1CCCO1 (single isomer, unassigned) [Example 97.0, (1S,2S)-N-(4-(2,6-dimethoxyphenyl)-5-((S)-tetrahydrofuran-2-yl)-4H-1,2,4-triazol-3-yl)-1-isopropoxy-1-(5-methylpyrimidin-2-yl)propane-2-sulfonamide or (1S,2S)-N-(4-(2,6-dimethoxyphenyl)-5-((R)-tetrahydrofuran-2-yl)-4H-1,2,4-triazol-3-yl)-1-isopropoxy-1-(5-methyl-pyrimidin-2-yl)propane-2-sulfonamide] | 5.5% | 2.0% | 15 |
| COc1ncnc(OC)c1-n1c(NS(=O)(=O)[C@@H](C)[C@H](C)c2ncc(Cl)cn2)nnc1[C@H]1CCCOC1 (single isomer, unassigned) [Example 102.0, (2S,3R)-3-(5-chloropyrimidin-2-yl)-N-(4-(4,6-dimethoxypyrimidin-5-yl)-5-((S)-tetrahydro-2H-pyran-3-yl)-4H-1,2,4-triazol-3-yl)butane-2-sulfonamide or (2S,3R)-3-(5-chloropyrimidin-2-yl)-N-(4-(4,6-dimethoxypyrimidin-5-yl)-5-((R)-tetrahydro-2H-pyran-3-yl)-4H-1,2,4-triazol-3-yl)butane-2-sulfonamide] | 2.0% | 5.0% | 5.2 |
| CO[C@H](c1ncc(Cl)cn1)[C@H](C)S(=O)(=O)Nc1nnc([C@H]2CCCCO2)n1C1(C)CC1 (single isomer, unassigned) [Example 112.0, (1R,2S)-1-(5-chloropyrimidin-2-yl)-1-methoxy-N-(4-(1-methylcyclopropyl)-5-((S)-tetrahydro-2H-pyran-2-yl)-4H-1,2,4-triazol-3-yl)propane-2-sulfonamide or (1R,2S)-1-(5-chloropyrimidin-2-yl)-1-methoxy-N-(4-(1-methylcyclopropyl)-5-((R)-tetrahydro-2H-pyran-2-yl)-4H-1,2,4-triazol-3-yl)propane-2-sulfonamide] | No effect | No effect | 14 |
| COc1ncnc(OC)c1-n1c(NS(=O)(=O)[C@@H](C)[C@H](OC)c2ncc(Cl)cn2)nnc1[C@H]1CCC(C)(C)O1 (single isomer, unassigned) [Example 139.0, (1R,2S)-1-(5-chloropyrimidin-2-yl)-N-(4-(4,6-dimethoxypyrimidin-5-yl)-5-((S)-5,5-dimethyltetrahydrofuran-2-yl)-4H-1,2,4-triazol-3-yl)-1-methoxypropane-2-sulfonamide or (1R,2S)-1-(5-chloropyrimidin-2-yl)-N-(4-(4,6-dimethoxypyrimidin-5-yl)-5-((R)-5,5-dimethyhetrahydrofuran-2-yl)-4H-1,2,4-triazol-3-yl)-1-methoxypropane-2-sulfonamide] | 20.9% | 30.4% | 4.8 |
